{"source": "patent US9926375B2", "about": "“Anti-endoglin antibodies and uses thereof” (Tracon Pharmaceuticals, Inc., priority 2014, dated 2018)", "key": {"NASH mice": {"tested_on": "NASH mice", "test": "Murine model of non-alcoholic steatohepatitis (NASH; STZ and high fat diet)", "type": "in vivo, mouse", "text": "The purpose of this study was to examine the protective effects of endoglin antibodies on a murine model of NASH.\nNASH was established by a single subcutaneous injection of STZ (Sigma, USA) after birth and feeding with a high fat diet (HFD; CLEA Japan, Japan) ad libitum after 4 weeks of age (day 28±2).\nRandomization of mice into 6 groups of 10 mice was done at 9 weeks of age (day 63±2), the day before the start of treatment.\nGroup 3 (Positive control; Temlisartan Group): Ten NASH mice were be orally administered pure water supplemented with telmisartan at a dose of 10 mg/kg once daily from day 63 to 84.\nGroup 4 (Antibody M1043: M1043 Group): Ten NASH mice were intravenously administered vehicle supplemented with Antibody M1043 at a dose of 10 mg/kg twice weekly at day 63, 66, 70, 73, 77 and 80.\nGroup 5 (Antibody TRC105; TRC105 Group): Ten NASH mice were intravenously administered vehicle supplemented with Antibody TRC105 at a dose of 10 mg/kg twice weekly at day 63, 66, 70, 73, 77 and 80.\nGroup 6 (Antibody TRC205; TRC205 Group): Ten NASH mice were intravenously administered vehicle supplemented with Antibody TRC205 at a dose of 10 mg/kg twice weekly at days 63, 66, 70, 73, 77 and 80.\nMice in all groups were terminated for the following assays at 12 weeks of age.\nH&E staining of liver tissue was conducted to estimate NAFLD Activity score.\nTotal NAS score represents the sum of scores for steatosis, lobular inflammation, and ballooning, and ranges from 0-8. Diagnosis of NASH (or, alternatively, fatty liver not diagnostic of NASH) should be made first, then NAS is used to grade activity. In the reference study, NAS scores of 0-2 occurred in cases largely considered not diagnostic of NASH, scores of 3-4 were evenly divided among those considered not diagnostic, borderline, or positive for NASH. Scores of 5-8 occurred in cases that were largely considered diagnostic of NASH.\nStatistical tests were performed using Bonferroni Multiple Comparison Test. P values<0.05 were considered statistically significant."}, "[1]": {"tested_on": "peripheral blood mononuclear cells (PBMCs)", "test": "EpiScreen time course T cell proliferation assay with intact anti-endoglin antibodies", "type": "cell-based, human", "text": "This example describes a method of screening anti-endoglin antibodies for T-cell epitopes. The interaction between MHC, polypeptide and T cell receptor (TCR) provides the structural basis for the antigen specificity of T cell recognition. T cell proliferation assays test the binding of polypeptides processed from antibodies to MHC and the recognition of MHC/polypeptide complexes by the TCR. In vitro T cell proliferation assays of the present example, involve the stimulation of peripheral blood mononuclear cells (PBMCs), containing antigen presenting cells (APCs) and T cells. Stimulation is conducted in vitro using intact anti-endoglin antibodies. Stimulated T cell proliferation is measured using ^3H-thymidine (^3H-Thy) and the presence of incorporated ^3H-Thymidine is assessed using scintillation counting of washed fixed cells.\nAnti-endoglin antibodies were purified from the supernatants of mammalian cultures by protein A chromatography. Buffer exchange and protein concentration was done using PBS pH=7.4. Anti-endoglin antibody was further purified by size exclusion chromatography using a Sephacryl S200 column (GE Healthcare, AMersham, UK). The major peak is collected, filter sterilized and shown to have endotoxin levels <5 EU/mg using an Endosafe-PTS (Charles River, Margate, UK). The purified antibodies are stored at 4 degrees Celsius. Final concentrations were determined by UV absorption using calculated molar extinction coefficients, where A280 1.0=1.62 mg/mL. Each antibody was then diluted to 100 μg/mL in AIMV culture medium.\nPeripheral Blood Mononuclear cells (PBMC) are isolated from healthy community donor buffy coats (from blood drawn within 24 hours) which are obtained from the UK National Blood Transfusion Service (Addenbrooke's Hospital, Cambridge, UK) according to approval granted by Addenbrooke's Hospital Local Research Ethics Committee. PBMC are isolated from buffy coats by Lymphoprep (Axis-shield, Dundee, Scotland) density centrifugation and CD8+ T cells are depleted using CD8+ RossetteSep™ (StemCell Technologies, Inc.). Donors are characterized by identifying HLA-DR haplotypes using a Biotest HLA SSP-PCR based tissue-typing kit (Biotest, Landsteinerstralβe, […]). T cell responses to a control antigen, Keyhole Limpet Haemocyanin (KLH) (Pierce, Rockford, Ill., USA) are determined for a positive control. PBMC were then frozen and stored in liquid nitrogen until required. When required for use, cells are thawed rapidly in a water bath at 37° C. before transferring to 10 ml pre-warmed AIM V medium.\nA cohort of 20 donors is selected to best represent the number and frequency of HLA-DR allotypes expressed in the world population. […]\nPBMCs from each donor are thawed, counted and viability assessed. […]"}, "human endoglin": {"biological_target": "T1, human endoglin (Homo sapiens, UniProt P17813)", "T1 sequence (P17813 26-658)": "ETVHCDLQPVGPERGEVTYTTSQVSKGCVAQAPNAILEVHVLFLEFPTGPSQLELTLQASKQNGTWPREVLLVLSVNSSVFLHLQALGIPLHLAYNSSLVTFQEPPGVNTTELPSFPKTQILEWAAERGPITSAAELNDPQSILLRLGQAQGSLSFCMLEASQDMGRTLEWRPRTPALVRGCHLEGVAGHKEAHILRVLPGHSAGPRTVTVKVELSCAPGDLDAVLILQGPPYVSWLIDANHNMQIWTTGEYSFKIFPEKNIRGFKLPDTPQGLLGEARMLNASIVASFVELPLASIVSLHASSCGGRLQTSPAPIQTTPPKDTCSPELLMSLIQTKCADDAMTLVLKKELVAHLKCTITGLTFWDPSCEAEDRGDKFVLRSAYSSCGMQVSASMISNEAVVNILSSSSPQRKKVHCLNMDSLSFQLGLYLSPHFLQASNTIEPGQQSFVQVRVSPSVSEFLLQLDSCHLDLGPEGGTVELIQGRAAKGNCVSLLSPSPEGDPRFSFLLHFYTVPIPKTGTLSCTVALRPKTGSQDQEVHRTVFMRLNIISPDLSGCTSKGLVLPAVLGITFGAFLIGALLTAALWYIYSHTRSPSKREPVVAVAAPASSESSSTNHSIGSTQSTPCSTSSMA", "test": "BIAcore (surface plasmon resonance) analysis of anti-endoglin antibody binding", "settings": "antibody captured on protein A chip, 25 degrees Celsius", "protocol": "Affinity of antibodies can be assessed using, for example, BIAcore analysis using standard protocols. Briefly, protein A is chemically coupled to a BIAcore CM5 chip, with the amount of protein A immobilized corresponding to 2000 RU. Subsequent steps are performed in a running buffer of 10 mM HEPES, 150 mM NaCl, 3 mM EDTA, 0.05% TWEEN, pH=7.4, at 25 degrees Celsius using a 10 Hz data collection rate. Anti-endoglin antibody (10 nM) is captured at a 10 μL/min flow rate by the immobilized protein A on the BIAcore chip: typically, capture times of 20, 40 and 80 seconds allow the capture of antibody densities corresponding to 130 RU, 330 RU and 570 RU, respectively. Start-up cycles are performed using running buffer at a flow rate of 40 μL/min, a contact time of 90 seconds and a dissociation time of 90 seconds. Sample cycles are performed using recombinant endoglin at concentrations ranging from 0 to 40 nM. Endoglin is passed over the BIAcore chip containing captured antibody at a flow rate of 40 μL/min with a contact time of 525 seconds and dissociation time of 2500 seconds. Eight sample cycles are typically performed at each antibody capture density. Regeneration of the chip is accomplished using 10 mM glycine pH=1.7. Data analysis is performed using BIAcore T100 Evaluation Software v1.1 Signals generated using BIAcore chips with different captured antibody densities are compared and data generated in the absence of recombinant endoglin are used to adjust for the intraassay blank signal. For fitting of the data, the Rmax is allowed to float to account for variation in capture levels of each antibody in each cycle. Data from each capture density is fitted simultaneously during analysis of each antibody. BIAcore data are presented in Table 2 for chimeric, humanized and deimmunized anti-endoglin antibodies, including ka (1/Ms), kd (1/s), KD (M) and Chi^2 (RU^2)."}, "[2]": {"settings": "liver gene expression, mean ± SD, Normal-Vehicle 1.0"}}, "data": [{"molecule": "CCCc1nc2c(C)cc(-c3nc4ccccc4n3C)cc2n1Cc1ccc(-c2ccccc2C(=O)O)cc1", "note": "[Telmisartan, telmisartan, reference compound]", "values": [{"measurement": "Alpha-smooth muscle actin mRNA expression levels compared with the NASH-Vehicle group", "setting": "NASH mice; Bonferroni, P<0.05", "result": "significantly down-regulated"}, {"measurement": "Liver triglyceride contents compared with the NASH-Vehicle group", "setting": "NASH mice; Bonferroni, P<0.05", "result": "significant decreases"}, {"measurement": "Macrophage chemoattractant protein-1 mRNA expression levels compared with the NASH-Vehicle group", "setting": "NASH mice; Bonferroni, P<0.05", "result": "tended to decrease"}, {"measurement": "Mean liver weight compared with the NASH-Vehicle group", "setting": "NASH mice; Bonferroni, P<0.05", "result": "significant decrease"}, {"measurement": "Mean liver-to-body weight ratio compared with the NASH-Vehicle group", "setting": "NASH mice; Bonferroni, P<0.05", "result": "significant decreases"}, {"measurement": "NAS compared with the NASH-Vehicle group", "setting": "NASH mice; Bonferroni, P<0.05", "result": "significant decreases in NAS"}, {"measurement": "Serum alanine aminotransferase (ALT) levels compared with the NASH-Vehicle group", "setting": "NASH mice; Bonferroni, P<0.05", "result": "tended to decrease"}, {"measurement": "Sirius red-positive area compared with the NASH-Vehicle group", "setting": "NASH mice; Bonferroni, P<0.05", "result": "significant decrease"}, {"measurement": "F4/80-positive signals and cells in liver compared with the NASH-Vehicle group", "setting": "NASH mice; F4/80 immunostaining, macrophage marker", "result": "No obvious changes"}, {"measurement": "Alpha-SMA mRNA expression", "setting": "NASH mice; [2]", "result": "0.7 ± 0.3"}, {"measurement": "MCP-1 mRNA expression", "setting": "NASH mice; [2]", "result": "1.5 ± 1.1"}, {"measurement": "TIMP-1 mRNA expression", "setting": "NASH mice; [2]", "result": "5.8 ± 3.7"}, {"measurement": "TNF-α mRNA expression", "setting": "NASH mice; [2]", "result": "3.2 ± 2.3"}, {"measurement": "Liver triglyceride", "setting": "NASH mice; mean ± SD", "result": "23.5 ± 10.6", "unit": "mg/g liver"}, {"measurement": "Serum ALP", "setting": "NASH mice; mean ± SD", "result": "444 ± 134", "unit": "U/L"}, {"measurement": "Serum ALT", "setting": "NASH mice; mean ± SD", "result": "29 ± 15", "unit": "U/L"}, {"measurement": "Serum AST", "setting": "NASH mice; mean ± SD", "result": "113 ± 32", "unit": "U/L"}, {"measurement": "Sirius red-positive area", "setting": "NASH mice; mean ± SD, liver sections", "result": "0.67 ± 0.12", "unit": "%"}, {"measurement": "NAS (NAFLD Activity score)", "setting": "NASH mice; mean ± SD, range 0-8, 10 mg/kg", "result": "3.3 ± 1.2"}, {"measurement": "Lobular inflammation score 0, number of mice", "setting": "NASH mice; score 0 = No Foci", "result": 3}, {"measurement": "Hepatocyte ballooning score 0, number of mice", "setting": "NASH mice; score 0 = None", "result": 1}, {"measurement": "Steatosis score 1, number of mice", "setting": "NASH mice; score 1 = 5-33%", "result": 9}, {"measurement": "Lobular inflammation score 1, number of mice", "setting": "NASH mice; score 1 = <2 foci/200x", "result": 4}, {"measurement": "Hepatocyte ballooning score 1, number of mice", "setting": "NASH mice; score 1 = Few balloon cells", "result": 3}, {"measurement": "Lobular inflammation score 2, number of mice", "setting": "NASH mice; score 2 = 2-4 foci/200x", "result": 2}, {"measurement": "Hepatocyte ballooning score 2, number of mice", "setting": "NASH mice; score 2 = Many cells/prominent ballooning", "result": 5}]}, {"molecule": "VK1VH1: humanized anti-endoglin antibody (antibody, V domains shown) VH: EVQLVESGGGLVKPGGSLRLSCAASGFTFSDAWMDWVRQAPGKGLEWVGEIRSKASNHATYYAESVKGRFTISRDDSKNTLYLQMNSLKTEDTAVYYCTRWRRFFDSWGQGTLVTVSS VL: DIQMTQSPSSLSASVGDRVTITCRASSSVSYMHWYQQKPGKAPKPWIYATSNLASGVPSRFSGSGSGTDYTLTISSLQPEDFATYYCQQWSSNPLTFGGGTKVEIK", "values": [{"measurement": "Responding donors, % of the study cohort", "setting": "[1]; cohort of 20 donors, 50 μg/mL antibody", "result": 10, "unit": "%"}, {"measurement": "Stimulation index (borderline response)", "setting": "[1]; donor 20", "result": 1.91}, {"measurement": "Donors with positive T cell proliferation responses", "setting": "[1]; of 20 donors, 50 μg/mL antibody, SI≥2 (borderline ≥1.90), p<0.05", "result": 2}]}, {"molecule": "VK1AAVH1R: humanized/deimmunized anti-endoglin antibody (antibody, V domains shown) VH: EVQLVESGGGLVKPGGSLRLSCAASGFTFSDAWMDWVRQAPGKGLEWVGEIRSRASNHATYYAESVKGRFTISRDDSKNTLYLQMNSLKTEDTAVYYCTRWRRFFDSWGQGTLVTVSS VL: DIQMTQSPSSLSASVGDRATITCRASSSVSYMHWYQQKPGKAPKPWAYATSNLASGVPSRFSGSGSGTDYTLTISSLQPEDFATYYCQQWSSNPLTFGGGTKVEIK", "values": [{"measurement": "ka", "setting": "human endoglin", "result": 64000, "unit": "M⁻¹ s⁻¹"}, {"measurement": "kd", "setting": "human endoglin", "result": "3.41e-05", "unit": "s⁻¹"}]}, {"molecule": "VK1AAVH1Q: humanized/deimmunized anti-endoglin antibody (antibody, V domains shown) VH: EVQLVESGGGLVKPGGSLRLSCAASGFTFSDAWMDWVRQAPGKGLEWVGEIRSQASNHATYYAESVKGRFTISRDDSKNTLYLQMNSLKTEDTAVYYCTRWRRFFDSWGQGTLVTVSS VL: DIQMTQSPSSLSASVGDRATITCRASSSVSYMHWYQQKPGKAPKPWAYATSNLASGVPSRFSGSGSGTDYTLTISSLQPEDFATYYCQQWSSNPLTFGGGTKVEIK", "values": [{"measurement": "ka", "setting": "human endoglin", "result": 35600, "unit": "M⁻¹ s⁻¹"}, {"measurement": "kd", "setting": "human endoglin", "result": "3.03e-05", "unit": "s⁻¹"}]}]}
